Experimental findings from patent publication US6919317B2, “Pharmaceutical composition comprising squalene epoxidase inhibitor and macrolide immunomodulator” (priority 2000, dated 2005) are described below.

Type in all cases: cell-based
For test [1], the system named is Candida albicans. Put plainly: NCCLS broth dilution combination study in yeast (modified M27-T), Candida albicans isolate. The following applies: for Antifungal activity of test compound alone: C. albicans isolate; for Interaction with fluconazole, C. albicans / Interaction with terbinafine, C. albicans: interpretation of FICI, MIC = 80% inhibition of growth, 48 hours; for Interaction with terbinafine, C. albicans: 37°, pH 7.0, isolate susceptible to both drugs. The procedure:
(§1) Combination studies are performed with Candida species, using the NCCLS standard assay (National Committee for Clinical Laboratory Standards [1995], Reference method for broth dilution antifungal susceptibility testing of yeasts (Tentative Standard M27-T, NCCL, Villanova, Pa., U.S.A.), modified as follows: the assay is effected in RPMI 1640 medium without NaHCO3 but with L-glutamine buffered with MOPS at pH 7.0 at 37°. The inoculum is 2.5×10^3 cfu/ml. Incubation times are 48 hours. The MIC is defined as the lowest drug concentration causing 80% inhibition of fungal growth.
(§2) The reference test compound (either terbinafine or fluconazole) is tested in a full concentration range in the absence or presence of the other test drug at 1, 2, 4, and 8 μg/ml.
(§3) Interaction between the drugs is analysed by calculation of the Fractional Inhibitory Concentration Index (FICI), defined as: FICI=[(MIC A in combination)/MIC A]+[MIC B in combination]/MIC B]
(§4) Interpretation of FICI in terms of interaction between the two drugs is as follows: FICI=0.5: synergy; <0.5<FICI=1: additive; 1<FICI=2: indifferent; 2<FICI: antagonism (in practical terms, synergy by this definition means that the MICs of both drugs are reduced by at least 2 dilution steps when used in combination).
(§5) The ability of the four test compounds 33-epichloro,33-desoxyascomycin, 5,6-dehydroascomycin, ascomycin and tacrolimus to influence the antifungal activity of terbinafine and fluconazole was examined in a Candida albicans isolate susceptible to both drugs, and in one isolate of Candida krusei which is resistant to terbinafine and poorly responsive to fluconazole.

The test system of test [2] is Candida krusei. Nature of the test: NCCLS broth dilution combination study in yeast (modified M27-T), Candida krusei isolate. The following applies: for Antifungal activity of test compound alone: C. krusei isolate; for Interaction with terbinafine as reference compound (in words): against Candida krusei; for Interaction with fluconazole, C. krusei / Interaction with terbinafine, C. krusei: interpretation of FICI, MIC = 80% inhibition of growth, 48 hours; for Interaction with fluconazole, C. krusei: isolate poorly responsive to fluconazole; for Interaction with terbinafine, C. krusei: isolate resistant to terbinafine. As for the experimental part:
as §1, §2, §3, §4, §5
Background: Broth dilution looks for growth in wells or tubes with falling amounts of substance.

Test [3] relates to Microsporum canis (strain NFI 5167). Put plainly: Checkerboard combination study in dermatophyte, modified NCCLS microdilution M38-P. Conditions: for MIC single drug: MIC = lowest concentration causing 80% inhibition of fungal growth; for MIC single drug / MIC combination: unit assumed; for MIC combination: terbinafine hydrochloride combined with 33-epichloro,33-desoxyascomycin, MIC = 80% inhibition. The procedure: Minimum Inhibitory Concentrations (MIC) against dermatophytes are determined in 96-well assay trays by a modification of the NCCLS microdilution procedure M38-P (National Committee for Clinical Laboratory Standards, Reference method for broth antifungal susceptibility testing of conidium-forming filamentous fungi; NCCLS document M38-P; NCCLS, Wayne, Pa., USA [1998]), as detailed in H. A. Norris et al., J. Am. Acad. Dermatol. 40 [1999] S9-S13). The MIC is defined as the lowest drug concentration causing 80% inhibition of fungal growth.
Combination studies are performed in a checkerboard design using the above assay to provide a matrix of all possible dose combination of the two drugs within the required concentration range. The matrix structure is provided by the microtiter trays used for the assay. The terbinafine dilution series is arranged on the y-axis (in columns) and the partner drug on the x-axis (in rows). In each row, well no. 1 contains the sterility control, well no. 2 contains terbinafine hydrochloride alone, wells no. 3 to no. 11 contain the dilution series of the partner drug 33-epichloro,33-desoxyascomycin, and well no. 12 contains the growth control. In each column, well A contains the partner drug alone and wells B to H contain the dilution series of terbinafine hydrochloride.
The nature of the interaction between the two drugs is defined quantitatively by means of the Fractional Inhibitory Concentration Index (FICI), which is calculated by the following formula: FICI=[(MIC A in combination)/MIC A]+[(MIC B in combination)/MIC B].
Interpretation of the FICI is: • ≦0.5: synergy; • >0.5 but ≦1: additive; • >1 but ≦2: indifferent; • >2: antagonism.
In practice, synergy calculated in this way is equivalent to a reduction of at least 2 dilution steps in the MIC of each drug when they are combined.

Regarding `CC[C@@H]1/C=C(\C)C[C@H](C)C[C@H](OC)[C@H]2O[C@@](O)(C(=O)C(=O)N3C=CCC[C@H]3C(=O)O[C@H](/C(C)=C/[C@@H]3CC[C@@H](O)[C@H](OC)C3)[C@H](C)[C@@H](O)CC1=O)[C@H](C)C[C@@H]2OC` [5,6-Dehydro-ascomycin, {1R,5Z,9S,12S-[1E-(1R,3R,4R)],13R,14S,17R,18E,21S,23S,24R,25S,27R}-17-ethyl-1,14-dihydroxy-12-[2-(4-hydroxy-3-methoxycyclohexyl)-1-methylvinyl]-23,25-dimethoxy-13,19,21,27-tetramethyl-11,28-dioxa-4-azatricyclo[22.3.1.0(4,9)]octacos-5,18-diene-2,3,10,16-tetraone], in test [1], the “Antifungal activity of test compound alone” value (“Antifungal activity” below) was “completely inactive”; the “Interaction with fluconazole, C. albicans” value is given as “− (−: indifferent/antagonistic)”; the “Interaction with terbinafine, C. albicans” value is recorded as “+ (+: additive)”. In addition, in test [2], the “Antifungal activity” value is “completely inactive”; the “Interaction with terbinafine as reference compound (in words)” value (“Interaction with terbinafine … (in words)” for short) is given as “strongly positive”; the “Interaction with fluconazole, C. krusei” value is “− (−: indifferent/antagonistic)”; the “Interaction with terbinafine, C. krusei” value is reported as “− (−: indifferent/antagonistic)”.

For `CC[C@@H]1/C=C(\C)C[C@H](C)C[C@H](OC)[C@H]2O[C@@](O)(C(=O)C(=O)N3CCCC[C@H]3C(=O)O[C@H](/C(C)=C/[C@@H]3CC[C@H](Cl)[C@H](OC)C3)[C@H](C)[C@@H](O)CC1=O)[C@H](C)C[C@@H]2OC` [33-Epichloro,33-desoxy-ascomycin, {[1E-(1R,3R,4S)]1R,9S,12S, 13R,14S,17R,18E, 21S,23S,24R,25S,27R}-12-[2-(4-chloro-3-methoxycyclohexyl)-1-methylvinyl]-17-ethyl-1,14-dihydroxy-23,25-dimethoxy-13,19,21,27-tetramethyl-11,28,dioxa-4-azatricyclo [22.3.1.0(4,9)]octacos-18-ene-2,3,10,16-tetraone], the FICI in test [3] (combination with terbinafine hydrochloride) came out at 0.28. Moreover, in test [3] (combination with terbinafine hydrochloride, ≦0.5: synergy), the “Interpretation (of FICI)” value was “synergy”. Besides, in test [3], the MIC single drug amounted to 64 mg/L and the MIC combination amounted to 16 mg/L. Besides, in test [1], the “Antifungal activity” value is “completely inactive”; the “Interaction with fluconazole, C. albicans” value was “− (−: indifferent/antagonistic)”; the “Interaction with terbinafine, C. albicans” value is “+ (+: additive)”. In test [2], the “Antifungal activity” value was “completely inactive”; the “Interaction with terbinafine … (in words)” value is “strongly positive”; the “Interaction with fluconazole, C. krusei” value is listed as “− (−: indifferent/antagonistic)”; the “Interaction with terbinafine, C. krusei” value is “− (−: indifferent/antagonistic)”.

On to `CC[C@@H]1/C=C(\C)C[C@H](C)C[C@H](OC)[C@H]2O[C@@](O)(C(=O)C(=O)N3CCCC[C@H]3C(=O)O[C@H](/C(C)=C/[C@@H]3CC[C@@H](O)[C@H](OC)C3)[C@H](C)[C@@H](O)CC1=O)[C@H](C)C[C@@H]2OC` [Ascomycin, ascomycin], for which, in test [1], the “Antifungal activity” value is “completely inactive”; the “Interaction with fluconazole, C. albicans” value is “− (−: indifferent/antagonistic)”; the “Interaction with terbinafine, C. albicans” value is listed as “+ (+: additive)”. Moreover, in test [2], the “Antifungal activity” value was “completely inactive”; the “Interaction with terbinafine … (in words)” value is reported as “powerfully synergistic”; the “Interaction with fluconazole, C. krusei” value is “− (−: indifferent/antagonistic)”; the “Interaction with terbinafine, C. krusei” value was “(* ((*: synergy)”.

Consider `C=CC[C@@H]1/C=C(\C)C[C@H](C)C[C@H](OC)[C@H]2O[C@@](O)(C(=O)C(=O)N3CCCC[C@H]3C(=O)O[C@H](/C(C)=C/[C@@H]3CC[C@@H](O)[C@H](OC)C3)[C@H](C)[C@@H](O)CC1=O)[C@H](C)C[C@@H]2OC` [Tacrolimus, tacrolimus], for which, in test [1], the “Antifungal activity” value is “completely inactive”; the “Interaction with fluconazole, C. albicans” value is listed as “− (−: indifferent/antagonistic)”; the “Interaction with terbinafine, C. albicans” value was “+ (+: additive)”. Also, in test [2], the “Antifungal activity” value is “completely inactive”; the “Interaction with terbinafine … (in words)” value was “powerfully synergistic”; the “Interaction with fluconazole, C. krusei” value is “− (−: indifferent/antagonistic)”; the “Interaction with terbinafine, C. krusei” value is recorded as “(* ((*: synergy)”.

For the compound `OC(Cn1cncn1)(Cn1cncn1)c1ccc(F)cc1F` [fluconazole], the “Interaction of fluconazole with the macrolide test compounds (in words)” value in test [1] (Candida albicans, statement covers both Candida isolates) is “no potent synergy”; in test [2] (Candida krusei, statement covers both Candida isolates), “no potent synergy”.

Regarding `CN(C/C=C/C#CC(C)(C)C)Cc1cccc2ccccc12` [terbinafine, (E)-N-methyl-N-(1-naphthylmethyl)-6,6-dimethylhept-2-en-4-amin], in test [3], the MIC single drug was found to be 0.031 mg/L and the MIC combination came to 0.001 mg/L.
